Counter-ions that a name gives are not always drawn. Like-named read-outs stand apart in the source and are kept apart here.
What was measured:
[1] = target: T1, Recombinant (1-346) HPK1 (h) (Homo sapiens, UniProt Q92918); test: HPK1 Human STE Kinase Enzymatic Radiometric Assay; format: biochemical; settings: read-out: HPK1 IC50 nM Range*
T1 construct: Recombinant (1-346) HPK1 (h) is incubated with 8 mM MOPS pH 7.0
T1 sequence (Q92918 1-346): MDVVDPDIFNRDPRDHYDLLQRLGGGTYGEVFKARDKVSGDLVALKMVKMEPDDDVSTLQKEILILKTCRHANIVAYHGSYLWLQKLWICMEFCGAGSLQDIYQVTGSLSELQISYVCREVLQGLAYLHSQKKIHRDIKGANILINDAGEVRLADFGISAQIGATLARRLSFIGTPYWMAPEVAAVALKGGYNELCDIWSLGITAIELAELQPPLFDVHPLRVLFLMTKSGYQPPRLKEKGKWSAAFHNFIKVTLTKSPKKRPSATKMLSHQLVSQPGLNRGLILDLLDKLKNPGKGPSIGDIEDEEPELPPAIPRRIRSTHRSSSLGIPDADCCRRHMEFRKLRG
Experimental: A stock solution of 10 mM of test compound is prepared in DMSO. The compound plate was prepared by 3-fold and 9-point serial dilutions. […] The reaction is initiated by The addition of the Mg/ATP mix. After incubation for 40 minutes at RT, the reaction is stopped by the addition of phosphoric acid to a concentration of 0.5%.

Lck (h) = Lck (h) (Homo sapiens, UniProt P06239); test: Lck Human  Kinase Enzymatic Radiometric Assay; format: biochemical
How it was run: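 Substrate 33P-incorporation measured by scintillation counting after spotting on P30 filtermat and phosphoric acid washes. Human Lck reacted 40 min at RT in 50 mM Tris pH 7.5 with 10 mM MgAcetate, [gamma-33P]-ATP, 250 uM Cdc2 peptide, 0.1 mM EGTA and 0.1 mM Na3VO4.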

Chain of Lck (h) (P06239 whole entry): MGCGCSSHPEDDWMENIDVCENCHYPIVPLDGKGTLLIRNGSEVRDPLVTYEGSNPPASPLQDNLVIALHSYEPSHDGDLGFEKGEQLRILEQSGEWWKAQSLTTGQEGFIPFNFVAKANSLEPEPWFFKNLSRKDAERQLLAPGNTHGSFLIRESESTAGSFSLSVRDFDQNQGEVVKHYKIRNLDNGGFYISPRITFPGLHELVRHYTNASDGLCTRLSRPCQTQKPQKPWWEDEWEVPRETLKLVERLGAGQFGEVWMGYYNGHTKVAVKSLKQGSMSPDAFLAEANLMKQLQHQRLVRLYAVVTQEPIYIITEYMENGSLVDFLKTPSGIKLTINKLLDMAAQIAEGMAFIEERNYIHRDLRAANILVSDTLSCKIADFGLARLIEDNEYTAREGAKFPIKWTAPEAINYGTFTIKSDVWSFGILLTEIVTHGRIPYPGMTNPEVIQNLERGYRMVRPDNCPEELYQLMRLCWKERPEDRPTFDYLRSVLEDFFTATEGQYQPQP

SMILES	IC50 [1] [nM]	IC50 (Lck (h); read-out: Lck IC50 nM Range*) [nM]	IC50 (Lck (h); read-out: Lck IC50 nM Range* (number printed instead of a class)) [nM]
CN1CCC(c2ccc(-c3cc(-c4cc5c(cc4F)C(=O)NCC5)c(N)nc3Cl)cc2)CC1 [I-233, 6-(2-amino-6-chloro-5-(4-(1-methylpiperidin-4-yl)phenyl)pyridin-3-yl)-7-fluoro-3,4-dihydroisoquinolin-1(2H)-one]	11 to 100	> 1000	–
Cc1c(N)cncc1-c1cc(-c2ccc3c(c2)CCNC3=O)c(N)nc1F [I-234, 6-(5,6-diamino-2-fluoro-4′-methyl-[3,3′-bipyridin]-5-yl)-3,4-dihydroisoquinolin-1(2H)-one 2,2,2-trifluoroacetate]	> 1000	> 1000	–
CCN1CCC(c2ccc(-c3cc(-c4ccc5c(c4)CCNC5=O)c(N)nc3F)cc2)C1 (stereo not drawn) [I-235, 6-(2-amino-5-(4-(1-ethylpyrrolidin-3-yl)phenyl)-6-fluoropyridin-3-yl)-3,4-dihydroisoquinolin-1(2H)-one]	0.1 to 10	> 1000	–
Nc1nc(F)c(-c2ccc(N3CCN(CC(F)F)CC3)cc2)cc1-c1cc2c(cc1F)C(=O)NCC2 [I-236, 6-(2-amino-5-(4-(4-(2,2-difluoroethyl)piperazin-1-yl)phenyl)-6-fluoropyridin-3-yl)-7-fluoro-3,4-dihydroisoquinolin-1(2H)-one]	0.1 to 10	> 1000	–
Nc1nc(F)c(-c2ccc(N3CCN(CC(F)(F)F)CC3)cc2)cc1-c1cc2c(cc1F)C(=O)NCC2 [I-237, 6-(2-amino-6-fluoro-5-(4-(4-(2,2,2-trifluoroethyl)piperazin-1-yl)phenyl)pyridin-3-yl)-7-fluoro-3,4-dihydroisoquinolin-1(2H)-one]	0.1 to 10	> 1000	–
Nc1nc(F)c(-c2ccc(C3CCNCC3)cc2)cc1-c1cc2c(cc1F)C(=O)NCC2 [I-238, 6-(2-amino-6-fluoro-5-(4-(piperidin-4-yl)phenyl)pyridin-3-yl)-7-fluoro-3,4-dihydroisoquinolin-1(2H)-one 2,2,2-trifluoroacetate]	0.1 to 10	> 1000	–
CC(C)N1CCC(F)(c2ccc(-c3cc(-c4ccc5c(c4)CCNC5=O)c(N)nc3F)cc2)CC1 [I-239, 6-(2-amino-6-fluoro-5-(4-(4-fluoro-1-isopropylpiperidin-4-yl)phenyl)pyridin-3-yl)-3,4-dihydroisoquinolin-1(2H)-one]	0.1 to 10	> 1000	–
Nc1nc(F)c(-c2ccc(N3CCN(CCC(F)(F)F)CC3)cc2)cc1-c1ccc2c(c1)CCNC2=O [I-240, 6-(2-amino-6-fluoro-5-(4-(4-(3,3,3-trifluoropropyl)piperazin-1-yl)phenyl)pyridin-3-yl)-3,4-dihydroisoquinolin-1(2H)-one]	0.1 to 10	> 1000	–
COCCN1CCC(c2ccc(-c3cc(-c4cc5c(cc4F)C(=O)NCC5)c(N)nc3F)cc2)CC1 [I-241, 6-(2-amino-6-fluoro-5-(4-(1-(2-methoxyethyl)piperidin-4-yl)phenyl)pyridin-3-yl)-7-fluoro-3,4-dihydroisoquinolin-1(2H)-one]	0.1 to 10	> 1000	–
Nc1nc(F)c(-c2ccc(C3CCN(CC4CC4)CC3)cc2)cc1-c1cc2c(cc1F)C(=O)NCC2 [I-242, 6-(2-amino-5-(4-(1-(cyclopropylmethyl)piperidin-4-yl)phenyl)-6-fluoropyridin-3-yl)-7-fluoro-3,4-dihydroisoquinolin-1(2H)-one]	0.1 to 10	> 1000	–
Nc1nc(F)c(-c2ccc(N3CCN(CCC(F)(F)F)CC3)cc2)cc1-c1cc2c(cc1F)C(=O)NCC2 [I-243, 6-(2-amino-6-fluoro-5-(4-(4-(3,3,3-trifluoropropyl)piperazin-1-yl)phenyl)pyridin-3-yl)-7-fluoro-3,4-dihydroisoquinolin-1(2H)-one]	0.1 to 10	> 1000	–
CC(C)N1CCC(c2ccc(-c3cc(-c4cc5c(cc4F)C(=O)NCC5)c(N)nc3F)cc2)CC1 [I-244, 6-(2-amino-6-fluoro-5-(4-(1-isopropylpiperidin-4-yl)phenyl)pyridin-3-yl)-7-fluoro-3,4-dihydroisoquinolin-1(2H)-one]	0.1 to 10	> 1000	–
CCN1CCC(c2ccc(-c3cc(-c4cc5c(cc4F)C(=O)NCC5)c(N)nc3F)cc2)CC1 [I-245, 6-(2-amino-5-(4-(1-ethylpiperidin-4-yl)phenyl)-6-fluoropyridin-3-yl)-7-fluoro-3,4-dihydroisoquinolin-1(2H)-one]	0.1 to 10	> 1000	–
CN1CCN(c2ccc(-c3cc(-c4cc5c(cc4F)C(=O)NCC5)c(N)nc3F)cc2)CC1 [I-246, 6-(2-amino-6-fluoro-5-(4-(4-methylpiperazin-1-yl)phenyl)pyridin-3-yl)-7-fluoro-3,4-dihydroisoquinolin-1(2H)-one]	0.1 to 10	> 1000	–
CN1CCN(c2ccc(-c3cc(-c4cc5c(cc4F)C(=O)NCC5)c(N)nc3F)cc2F)CC1 [I-247, 6-(2-amino-6-fluoro-5-(3-fluoro-4-(4-methylpiperazin-1-yl)phenyl)pyridin-3-yl)-7-fluoro-3,4-dihydroisoquinolin-1(2H)-one]	0.1 to 10	> 1000	–
Nc1nc(F)c(-c2ccc(C3CCN(CC(F)(F)F)CC3)cc2)cc1-c1cc2c(cc1F)C(=O)NCC2 [I-248, 6-(2-amino-6-fluoro-5-(4-(1-(2,2,2-trifluoroethyl)piperidin-4-yl)phenyl)pyridin-3-yl)-7-fluoro-3,4-dihydroisoquinolin-1(2H)-one]	11 to 100	> 1000	–
CN1CCN(c2ccc(-c3cc(-c4cc5c(cc4F)C(=O)NCC5)c(N)nc3F)cc2C(F)(F)F)CC1 [I-249, 6-(2-amino-6-fluoro-5-(4-(4-methylpiperazin-1-yl)-3-(trifluoromethyl)phenyl)pyridin-3-yl)-7-fluoro-3,4-dihydroisoquinolin-1(2H)-one]	0.1 to 10	–	381
C[C@@H]1CN(c2cc(F)c(-c3cc(-c4ccc5c(c4)CCNC5=O)c(N)nc3F)cc2[N+](=O)[O-])C[C@H](C)N1C [I-250, 6-(2-amino-6-fluoro-5-(2-fluoro-5-nitro-4-((3R,5S)-3,4,5-trimethylpiperazin-1-yl)phenyl)pyridin-3-yl)-3,4-dihydroisoquinolin-1(2H)-one formate]	11 to 100	> 1000	–
COCCN1CCC(F)(c2ccc(-c3cc(-c4ccc5c(c4)CCNC5=O)c(N)nc3F)cc2)CC1 [I-251, 6-(2-amino-6-fluoro-5-(4-(4-fluoro-1-(2-methoxyethyl)piperidin-4-yl)phenyl)pyridin-3-yl)-3,4-dihydroisoquinolin-1(2H)-one]	0.1 to 10	> 1000	–
CN1CCN(c2ccc(-c3cc(-c4cc5c(cc4F)C(=O)NCC5)c(N)nc3F)c(Cl)c2)CC1 [I-252, 6-(2-amino-5-(2-chloro-4-(4-methylpiperazin-1-yl)phenyl)-6-fluoropyridin-3-yl)-7-fluoro-3,4-dihydroisoquinolin-1(2H)-one]	0.1 to 10	> 1000	–
CN1CCc2cc(-c3cc(-c4ccc5c(c4)CCNC5=O)c(N)nc3F)ccc21 [I-253, 6-(2-amino-6-fluoro-5-(1-methylindolin-5-yl)pyridin-3-yl)-3,4-dihydroisoquinolin-1(2H)-one]	11 to 100	> 1000	–
CN1CCc2cc(-c3cc(-c4ccc5c(c4)CCNC5=O)c(N)nc3F)ccc2C1 [I-254, 6-(2-amino-6-fluoro-5-(2-methyl-1,2,3,4-tetrahydroisoquinolin-6-yl)pyridin-3-yl)-3,4-dihydroisoquinolin-1(2H)-one]	11 to 100	> 1000	–
Nc1nc(F)c(-c2ccc3c(c2)CCNC3)cc1-c1ccc2c(c1)CCNC2=O [I-255, 6-(2-amino-6-fluoro-5-(1,2,3,4-tetrahydroisoquinolin-6-yl)pyridin-3-yl)-3,4-dihydroisoquinolin-1(2H)-one 2,2,2-trifluoroacetate]	0.1 to 10	> 1000	–
Nc1nc(F)c(-c2ccc(C3CCN(CC(F)F)CC3)cc2)cc1-c1cc2c(cc1F)C(=O)NCC2 [I-256, 6-(2-amino-5-(4-(1-(2,2-difluoroethyl)piperidin-4-yl)phenyl)-6-fluoropyridin-3-yl)-7-fluoro-3,4-dihydroisoquinolin-1(2H)-one]	0.1 to 10	> 1000	–
Nc1nc(F)c(-c2ccc(CN3CCOCC3)cc2)cc1-c1ccc2c(c1)CCNC2=O [I-257, 6-(2-amino-6-fluoro-5-(4-(morpholinomethyl)phenyl)pyridin-3-yl)-3,4-dihydroisoquinolin-1(2H)-one]	11 to 100	> 1000	–
CN1CCN(Cc2ccc(-c3cc(-c4ccc5c(c4)CCNC5=O)c(N)nc3F)cc2)CC1 [I-258, 6-(2-amino-6-fluoro-5-(4-((4-methylpiperazin-1-yl)methyl)phenyl)pyridin-3-yl)-3,4-dihydroisoquinolin-1(2H)-one]	11 to 100	> 1000	–
CN1CCN(C(=O)c2ccc(-c3cc(-c4ccc5c(c4)CCNC5=O)c(N)nc3F)cc2)CC1 [I-259, 6-(2-amino-6-fluoro-5-(4-(4-methylpiperazine-1-carbonyl)phenyl)pyridin-3-yl)-3,4-dihydroisoquinolin-1(2H)-one]	11 to 100	> 1000	–
